The results in this text go back to ChEMBL document CHEMBL1201862, “PubChem BioAssay data set” (2004).

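Where inhibition never reached the appropriate level, the endpoint shown equals the highest concentration tested. Otherwise, values were interpolated linearly from a five-concentration, 48-hour dose response in 96-well plates. GI50 is the concentration that inhibits growth by half.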 Active and inactive are the calls of the source. Cut-off read from the data, not from the text of the source: active = GI50 up to about 1.1 µM and inactive = higher.

Test systems include TK-10; HOP-92; SNB-75; NCI-H23; CAKI-1; SK-MEL-5; EKVX; 786-0; RPMI-8226; UACC-62; NCI-H460; HCT-116; SW-620; KM-20L2; OVCAR-4; SK-OV-3.
Common to all, as to assay: NCI-60 cell line screen, 48 h

Consider `CC(=O)CCn1[nH]c(=O)c(Cl)c(Cl)c1=O`, for which the GI50 in the assay with TK-10 was > 100 µM (inactive); in the assay on HOP-92 it was > 100 µM (inactive); in the assay with SNB-75, > 100 µM (inactive); with NCI-H23 it was > 100 µM (inactive); in the assay on CAKI-1 it was 14.3 µM (inactive); in the assay with SK-MEL-5, > 100 µM (inactive). Further, the GI50 with EKVX, with 786-0, in the assay with RPMI-8226, in the assay on UACC-62, in the assay with NCI-H460 and with HCT-116 was > 100 µM (inactive) throughout. Also, the GI50 with SW-620 is 15 µM (inactive); in the assay with KM-20L2, > 100 µM (inactive); in the assay on OVCAR-4 it was > 100 µM (inactive).
With `CCOC(=O)C1C(NC(N)=O)N(Cc2ccccc2)C(=O)N1Cc1ccccc1` (stereo not drawn), the GI50 was > 100 µM (inactive) in the assay with TK-10; > 100 µM (inactive) in the assay with HOP-92; > 100 µM (inactive) in the assay with SNB-75; > 10 µM (inactive) in the assay on NCI-H23; > 100 µM (inactive) in the assay on CAKI-1; > 100 µM (inactive) with SK-MEL-5. Also, the GI50 with EKVX, in the assay with 786-0, in the assay on RPMI-8226, in the assay with UACC-62, in the assay on NCI-H460 and in the assay with HCT-116 was > 100 µM (inactive) in each case. The GI50 was > 100 µM (inactive) with SK-OV-3, > 100 µM (inactive) in the assay with SW-620, 41.3 µM (inactive) with KM-20L2 and > 100 µM (inactive) in the assay with OVCAR-4.
Consider `O=[N+]([O-])c1ccc2nc3ccscc-3c2c1`, for which the GI50 is 20.9 µM (inactive) in the assay on TK-10; 10.8 µM (inactive) in the assay with HOP-92; 11.7 µM (inactive) in the assay on NCI-H23; 13 µM (inactive) in the assay with CAKI-1; 7.31 µM (inactive) in the assay with SK-MEL-5; 9.93 µM (inactive) in the assay on EKVX. In addition, the GI50 with 786-0 was 19.5 µM (inactive); in the assay on RPMI-8226 it was 7.08 µM (inactive); in the assay on UACC-62, 21.4 µM (inactive); in the assay on NCI-H460, 14.1 µM (inactive); in the assay with SK-OV-3 it was 30.7 µM (inactive); in the assay with SW-620 it was 7.08 µM (inactive). The GI50 is 25.2 µM (inactive) in the assay with KM-20L2 and 15.5 µM (inactive) in the assay with OVCAR-4.
Regarding `O=C(O)[C@@H]1CCCC[C@@H]1C(=O)N(C1CCCCC1)C1CCCCC1`, the GI50 in the assay with TK-10, with HOP-92, in the assay with SNB-75, in the assay on NCI-H23, in the assay on CAKI-1 and with SK-MEL-5 was > 100 µM (inactive) each time. The GI50 in the assay with EKVX, with 786-0, in the assay on RPMI-8226, with UACC-62, with NCI-H460 and in the assay with HCT-116 was > 100 µM (inactive) in each case. Further, the GI50 in the assay on SK-OV-3, in the assay with SW-620, in the assay on KM-20L2 and with OVCAR-4 was > 100 µM (inactive) throughout.
`Cc1cc(OCC(O)CO)ccc1-c1ccccc1` (stereo not drawn): the GI50 with TK-10 is > 100 µM (inactive); in the assay on HOP-92 it was 92.5 µM (inactive); with SNB-75, > 100 µM (inactive); in the assay with NCI-H23, > 100 µM (inactive); with CAKI-1 it was > 100 µM (inactive); in the assay with SK-MEL-5, > 100 µM (inactive). Also, the GI50 in the assay on EKVX was 80.2 µM (inactive); in the assay on 786-0, > 100 µM (inactive); in the assay with UACC-62 it was > 100 µM (inactive); in the assay with NCI-H460, > 100 µM (inactive); with HCT-116, 77.3 µM (inactive); in the assay with SW-620 it was 6.65 µM (inactive). Also, the GI50 with KM-20L2 and in the assay with OVCAR-4 was > 100 µM (inactive) in each case.
As for `CCOC(=O)C(=O)Nc1c(C)cccc1CC`, the GI50 with TK-10, with HOP-92, in the assay on NCI-H23, with CAKI-1, in the assay with SK-MEL-5 and in the assay on EKVX was > 100 µM (inactive) throughout. Also, the GI50 in the assay on 786-0, in the assay on RPMI-8226, with UACC-62, in the assay on NCI-H460, in the assay with HCT-116 and with SK-OV-3 was > 100 µM (inactive) in each case. The GI50 with SW-620, in the assay with KM-20L2 and in the assay with OVCAR-4 was > 100 µM (inactive) throughout.
`CC1(C)C(=O)C(C)(C)C1=NNC(N)=S`: the GI50 with TK-10, in the assay with HOP-92, in the assay with SNB-75, with NCI-H23, in the assay with CAKI-1 and in the assay with SK-MEL-5 was > 100 µM (inactive) throughout. In addition, the GI50 with 786-0, in the assay with RPMI-8226, in the assay with UACC-62, with NCI-H460, with HCT-116 and with SK-OV-3 was > 100 µM (inactive) in each case. Further, the GI50 with SW-620, with KM-20L2 and with OVCAR-4 was > 100 µM (inactive) each time.
Consider `COc1cc(C(=O)CC2(O)C(=O)Nc3c(Cl)cc(Cl)cc32)ccc1O` (stereo not drawn), for which the GI50 in the assay with TK-10 is > 100 µM (inactive); in the assay on HOP-92, 23.8 µM (inactive); in the assay with SNB-75, 24.2 µM (inactive); in the assay with NCI-H23 it was 59.2 µM (inactive); in the assay with CAKI-1, 56.2 µM (inactive); in the assay on SK-MEL-5 it was 27.6 µM (inactive). For the same compound, the GI50 in the assay with EKVX is 94 µM (inactive); in the assay on 786-0, > 100 µM (inactive); in the assay with RPMI-8226 it was 24.4 µM (inactive); in the assay with NCI-H460, 75.7 µM (inactive); with SK-OV-3, 14.9 µM (inactive); in the assay on SW-620, 71.6 µM (inactive). Further, the GI50 with KM-20L2 was 61.4 µM (inactive); in the assay on OVCAR-4, 60.8 µM (inactive).
As for `COCOCC/C=C/C=O`, the GI50 in the assay with TK-10, in the assay on HOP-92, in the assay on SNB-75, in the assay with NCI-H23, in the assay with SK-MEL-5 and in the assay with EKVX was > 100 µM (inactive) each time. Besides, the GI50 in the assay with 786-0, with RPMI-8226, in the assay with UACC-62, with NCI-H460, in the assay on HCT-116 and in the assay with SK-OV-3 was > 100 µM (inactive) each time. For the same compound, the GI50 in the assay on SW-620 and with KM-20L2 was > 100 µM (inactive) each time.
In the case of `CC1(C)CC(C)(C)CC(O)(C2(O)CC(C)(C)CC(C)(C)C2)C1`, the GI50 with TK-10, in the assay with NCI-H23, in the assay with SK-MEL-5, with EKVX, in the assay with 786-0 and in the assay on RPMI-8226 was > 100 µM (inactive) each time. In addition, the GI50 in the assay on UACC-62, with NCI-H460, in the assay with HCT-116, with SK-OV-3, with SW-620 and in the assay with KM-20L2 was > 100 µM (inactive) each time.
For the compound `CN(C)CC(C)(C)C(=O)/C=C/c1ccccc1`, the GI50 with TK-10 was 18.2 µM (inactive); in the assay on HOP-92 it was 8.41 µM (inactive); in the assay on SNB-75 it was 16.1 µM (inactive); in the assay with NCI-H23, 19.9 µM (inactive); in the assay on CAKI-1 it was 15.8 µM (inactive); in the assay with SK-MEL-5 it was 16.2 µM (inactive). Moreover, the GI50 is 17.6 µM (inactive) in the assay with EKVX; 15.4 µM (inactive) in the assay on 786-0; 12.2 µM (inactive) in the assay with RPMI-8226; 13.2 µM (inactive) with UACC-62; 13.9 µM (inactive) in the assay with NCI-H460; 13.5 µM (inactive) in the assay with HCT-116. The GI50 was 14.5 µM (inactive) in the assay with SW-620, 15.3 µM (inactive) with KM-20L2 and 14.2 µM (inactive) in the assay with OVCAR-4.
Regarding `CC1CC[C@]2(C(=O)O)CCC3(C)C(=CC(=O)C4[C@@]5(C)CCC(=O)C(C)(C)C5CC[C@]43C)[C@@H]2[C@H]1C` (stereo partly drawn), the GI50 with TK-10 was 28.3 µM (inactive); with HOP-92, 25 µM (inactive); in the assay on SNB-75, 35.5 µM (inactive); in the assay on NCI-H23, 25.1 µM (inactive); in the assay with CAKI-1, 39.8 µM (inactive); in the assay with SK-MEL-5 it was 20.7 µM (inactive). Besides, the GI50 in the assay on EKVX is 31.6 µM (inactive); in the assay on 786-0, 31.8 µM (inactive); in the assay with UACC-62 it was 13.2 µM (inactive); with NCI-H460 it was 26.2 µM (inactive); in the assay on HCT-116, 18.1 µM (inactive); in the assay with SK-OV-3, 34.5 µM (inactive). Also, the values for the GI50 in the assay on SW-620, with KM-20L2 and with OVCAR-4 were 39.9 µM (inactive), > 10 µM (inactive) and 35.2 µM (inactive), respectively.
Regarding `COc1cc(C)c2c(c1C)OC(=O)c1c(C)c(Cl)c(O)c(C=O)c1O2`, the GI50 in the assay on TK-10 was 29 µM (inactive); in the assay on SNB-75, 14.3 µM (inactive); in the assay with NCI-H23, 14.7 µM (inactive); in the assay with CAKI-1, 52.2 µM (inactive); with SK-MEL-5, 60.1 µM (inactive); in the assay on EKVX, 10.3 µM (inactive). Besides, the GI50 was 10.4 µM (inactive) in the assay on 786-0; 14 µM (inactive) in the assay on RPMI-8226; 15.7 µM (inactive) with UACC-62; 17.4 µM (inactive) in the assay on NCI-H460; 20.8 µM (inactive) in the assay with HCT-116; 23.4 µM (inactive) with SK-OV-3. For the same compound, the GI50 in the assay with SW-620 is 31.8 µM (inactive); with KM-20L2 it was 22.6 µM (inactive).
Regarding `Cc1cc(C2CCCCC2)n(O)c(=O)c1` [CICLOPIROX OLAMINE], the GI50 in the assay with TK-10 is 37.1 µM (inactive); in the assay with HOP-92, 0.605 µM (active); with SNB-75, 5.46 µM (inactive); in the assay on NCI-H23, 9.08 µM (inactive); in the assay with SK-MEL-5 it was 10.4 µM (inactive); with EKVX, 4.04 µM (inactive). The GI50 is 9.48 µM (inactive) in the assay with 786-0; 3.56 µM (inactive) with RPMI-8226; 3.03 µM (inactive) in the assay on UACC-62; 2.32 µM (inactive) with NCI-H460; 3.7 µM (inactive) in the assay on HCT-116; 47 µM (inactive) in the assay on SK-OV-3. Further, the GI50 in the assay on SW-620 was 5.85 µM (inactive); with KM-20L2, 12 µM (inactive).
